From ChEMBL document CHEMBL1129085
The source made the active and inactive calls. The calls are words filed in the database; no cut-off is given here.

Legend:
[1] = target: T1, Estrogen receptor (Mus musculus) (UniProt O08537+P19785)
Description: Anti-uterotropic effect as inhibition of 0.06 ug/injection estrone-induced uterine weight gain in mice at 10 ug/injection dose; No

[2] = target: T1, Estrogen receptor (Mus musculus); assay: Uterotrophic effect in mice at 10 ug/injection dose; No; format: functional, tissue-based; conditions: Uterus
[3] = target: Estrogen receptor (Rattus norvegicus) (UniProt P06211+Q62986); assay: Binding affinity for rat uterine estrogen receptor relative to estradiol; format: protein assay
[4] = target: T1, Estrogen receptor (Mus musculus); assay: Anti-uterotropic effect as inhibition of 0.06 ug/injection estrone-induced uterine weight gain in mice at 10 ug/injection dose; Yes; format: functional

T1 sequence (O08537 whole entry, looked up): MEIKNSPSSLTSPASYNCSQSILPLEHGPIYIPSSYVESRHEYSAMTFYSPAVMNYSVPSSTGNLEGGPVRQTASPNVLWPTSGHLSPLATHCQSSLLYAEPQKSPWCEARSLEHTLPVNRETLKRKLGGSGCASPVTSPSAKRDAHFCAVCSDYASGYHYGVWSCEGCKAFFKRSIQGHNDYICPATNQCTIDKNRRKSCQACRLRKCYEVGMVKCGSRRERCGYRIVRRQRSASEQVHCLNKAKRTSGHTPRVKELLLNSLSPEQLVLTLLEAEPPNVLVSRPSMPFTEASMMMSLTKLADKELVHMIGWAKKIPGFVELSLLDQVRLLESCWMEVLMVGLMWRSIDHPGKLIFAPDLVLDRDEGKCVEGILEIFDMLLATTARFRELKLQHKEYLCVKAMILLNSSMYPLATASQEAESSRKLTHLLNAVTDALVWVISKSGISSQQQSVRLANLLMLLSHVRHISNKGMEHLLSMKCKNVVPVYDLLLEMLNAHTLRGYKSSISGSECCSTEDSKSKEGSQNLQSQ
T1 sequence (P19785 whole entry, looked up): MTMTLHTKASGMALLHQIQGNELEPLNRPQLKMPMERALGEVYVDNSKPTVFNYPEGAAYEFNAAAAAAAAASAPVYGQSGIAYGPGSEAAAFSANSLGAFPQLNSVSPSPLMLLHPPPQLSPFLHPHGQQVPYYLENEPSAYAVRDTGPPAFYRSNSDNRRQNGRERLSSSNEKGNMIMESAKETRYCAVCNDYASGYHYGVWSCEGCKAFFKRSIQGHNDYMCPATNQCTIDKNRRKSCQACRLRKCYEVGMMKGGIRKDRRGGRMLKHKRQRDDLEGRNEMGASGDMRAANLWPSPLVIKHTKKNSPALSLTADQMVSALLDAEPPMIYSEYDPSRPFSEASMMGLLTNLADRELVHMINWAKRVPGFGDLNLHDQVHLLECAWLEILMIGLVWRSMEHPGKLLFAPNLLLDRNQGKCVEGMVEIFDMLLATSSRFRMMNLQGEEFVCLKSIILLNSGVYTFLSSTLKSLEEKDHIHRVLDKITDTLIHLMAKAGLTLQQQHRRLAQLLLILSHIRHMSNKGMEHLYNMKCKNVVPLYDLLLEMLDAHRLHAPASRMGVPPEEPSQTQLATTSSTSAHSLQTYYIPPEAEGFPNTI

Structure (SMILES) | Antiuterotrophic activity [1] | Uterotrophic activity [2] | RBA [3] | Antiuterotrophic activity [4]
CCCCN(C)C(=O)CCCCCCCCCCC1C[C@H](O)[C@@]2(C)CC[C@@H]3c4ccc(O)cc4CC[C@H]3[C@H]12 (some centres not stated) | inactive | inactive | 0.001% | –
CCCCN(C)C(=O)CCCCCCCCCC[C@H]1C[C@H](O)[C@@]2(C)CC[C@@H]3c4ccc(O)cc4CC[C@H]3[C@H]12 | inactive | inactive | 0.05% | –
CCCCN(C)C(=O)CCCCCCCCCC[C@@H]1C[C@H](O)[C@@]2(C)CC[C@@H]3c4ccc(O)cc4CC[C@H]3[C@H]12 | – | – | < 0.001% | –
CCCCN(C)C(=O)CCCCCCCCCC[C@]1(O)CC[C@H]2[C@@H]3CCc4cc(O)ccc4[C@H]3CC[C@@]21C | inactive | inactive | 0.01% | –
CCCCN(C)C(=O)CCCCCCCCCCCC[C@H]1C[C@H](O)[C@@]2(C)CC[C@@H]3c4ccc(O)cc4CC[C@H]3[C@H]12 | inactive | inactive | < 0.001% | –
CCCCN(C)C(=O)CCCCCCCCC1C[C@H](O)[C@@]2(C)CC[C@@H]3c4ccc(O)cc4CC[C@H]3[C@H]12 (some centres not stated) | inactive | inactive | < 0.001% | –
CCCCN(C)C(=O)CCCCCCCCCC[C@@H]1Cc2cc(O)ccc2[C@H]2CC[C@]3(C)[C@@H](O)CC[C@H]3[C@H]12 | – | inactive | 1.2% | inactive
CCCCN(C)C(=O)CCCCCCCCCCCC[C@@H]1C[C@H](O)[C@@]2(C)CC[C@@H]3c4ccc(O)cc4CC[C@H]3[C@H]12 | inactive | inactive | < 0.001% | –
